Counter-ions that a name gives are not always drawn.
Experiments:
Format in all cases: physicochemical
[1] = Photostability test (UV and visible light), impurity content and color change; conditions: for Color change, Initial / Impurity content (%), Initial: photostability test; for Photostability against UV and visible light compared with the SK-3530 dihydrochloride salt: summary of Tables 4 and 5; for Color change, UV / Impurity content (%), UV: total UV radiation 200 W·h/m^2; for Color change, UV / Impurity content (%), UV / Color change, Visible / Impurity content (%), Visible: 25° C., 60% humidity; for Impurity content (%), UV / Impurity content (%), Visible: Petri dish; for Color change, Visible / Impurity content (%), Visible: total visible light radiation 1080 klux/m^2h
Method: The following Table 4 and Table 5 show the photostability test result for dihydrochloride salt (2HCl), gentisate, maleate, citrate, fumarate and hemitartrate salts of SK-3530. The total ultraviolet (UV) radiation was 200 W·h/m^2 and the total visible light radiation was 1080 klux/m^2h. Each salt was kept on a Petri dish under the condition of 25° C. and 60% humidity.

[2] = Water and atmospheric (storage) stability: total impurities by liquid chromatography after storage; conditions: for Storage stability compared with the SK-3530 dihydrochloride salt: summary of Tables 1 to 3
Method: This test is for confirming the storage stability of SK-3530 salt.
A sufficient stability is required to process a drug into a particular medication form. For instance, preparation into tablet or capsule requires atmospheric stability and preparation into injection may require water stability.
The following Table 1 (25° C., 75% humidity), Table 2 (40° C., 60% humidity) and Table 3 (50° C., 75% humidity) show the content of total impurities measured by liquid chromatography after storing dihydrochloride (2HCl), gentisate, maleate, citrate, fumarate and hemitartrate salts of SK-3530 for 1 week and 3 weeks.

[3] = Thermal stability test at 105° C., impurity content and color change; conditions: for Impurity content (%), 3 hours / Color change, 3 hours / Impurity content (%), 48 hours / Color change, 48 hours: dryer at 105° C.; for Color change, 3 hours / Color change, 48 hours: macroscopic observation; for Thermal stability compared with the SK-3530 dihydrochloride salt: summary of Tables 6 and 7; for Color change, Initial / Impurity content (%), Initial: thermal stability test
Method: The following Table 6 and Table 7 show the thermal stability test result for dihydrochloride salt (2HCl), gentisate, maleate, citrate, fumarate and hemitartrate salts of SK-3530. Each salt was placed on a Petri dish and kept in a dryer at 105° C. Following macroscopic observation at 3 hours and 48 hours later, the content of impurities was measured with liquid chromatography.

[4] = Hygroscopicity; conditions: statement in words, no test described

Row | Color change, Initial [1] | Impurity content (%), Initial [1] | Photostability against UV and visible light compared with the SK-3530 dihydrochloride salt [1] | Color change, UV [1] | Impurity content (%), UV [1] | Color change, Visible [1] | Impurity content (%), Visible [1] | Impurity content (%) at 25° C., 75% humidity, 1 week [2] | Impurity content (%) at 25° C., 75% humidity, 3 weeks [2] | Impurity content (%) at 25° C., 75% humidity, Initial [2] | Impurity content (%) at 40° C., 60% humidity, 1 week [2] | Impurity content (%) at 40° C., 60% humidity, 3 weeks [2] | Impurity content (%) at 40° C., 60% humidity, Initial [2] | Impurity content (%) at 50° C., 75% humidity, 1 week [2] | Impurity content (%) at 50° C., 75% humidity, 3 weeks [2] | Impurity content (%) at 50° C., 75% humidity, Initial [2] | Storage stability compared with the SK-3530 dihydrochloride salt [2] | Impurity content (%), 3 hours [3] | Color change, 3 hours [3] | Impurity content (%), 48 hours [3] | further results | Structure (SMILES)
1 | White | 0.12% | much superior | White | 0.37% | White | 0.14% | 0.15% | 0.15% | 0.12% | 0.13% | 0.14% | 0.12% | 0.14% | 0.14% | 0.12% | much superior | 0.30% | White | 1.81% | Color change, 48 hours [3]: White; Thermal stability compared with the SK-3530 dihydrochloride salt [3]: much superior; Color change, Initial [3]: White; Impurity content (%), Initial [3]: 0.12%; Hygroscopicity [4]: non-hygroscopic | CCCOc1ccc(S(=O)(=O)N2CCN(CCO)CC2)cc1-c1nc2c(CCC)cn(CC)c2c(=O)[nH]1 [SK-3530 citrate salt]
2 | White | 0.02% | much superior | Pale yellow | 0.08% | White | 0.07% | 0.02% | 0.03% | 0.02% | 0.02% | 0.05% | 0.02% | 0.02% | 0.05% | 0.02% | much superior | 0.11% | White | 0.61% | Color change, 48 hours [3]: White; Thermal stability compared with the SK-3530 dihydrochloride salt [3]: much superior; Color change, Initial [3]: White; Impurity content (%), Initial [3]: 0.02%; Hygroscopicity [4]: non-hygroscopic | CCCOc1ccc(S(=O)(=O)N2CCN(CCO)CC2)cc1-c1nc2c(CCC)cn(CC)c2c(=O)[nH]1 [SK-3530 fumarate salt]
3 | White | 0.09% | much superior | Pale yellow | 0.36% | Pale yellow | 0.17% | 0.09% | 0.12% | 0.09% | 0.10% | 0.10% | 0.09% | 0.09% | 0.10% | 0.09% | much superior | 0.09% | White | 0.13% | Color change, 48 hours [3]: White; Thermal stability compared with the SK-3530 dihydrochloride salt [3]: much superior; Color change, Initial [3]: White; Impurity content (%), Initial [3]: 0.09%; Hygroscopicity [4]: non-hygroscopic | CCCOc1ccc(S(=O)(=O)N2CCN(CCO)CC2)cc1-c1nc2c(CCC)cn(CC)c2c(=O)[nH]1 [SK-3530 gentisate salt]
4 | White | 0.07% | much superior | White | 0.52% | White | 0.21% | 0.09% | 0.13% | 0.07% | 0.10% | 0.14% | 0.07% | 0.11% | 0.13% | 0.07% | much superior | 0.14% | White | 0.70% | Color change, 48 hours [3]: White; Thermal stability compared with the SK-3530 dihydrochloride salt [3]: much superior; Color change, Initial [3]: White; Impurity content (%), Initial [3]: 0.07%; Hygroscopicity [4]: non-hygroscopic | CCCOc1ccc(S(=O)(=O)N2CCN(CCO)CC2)cc1-c1nc2c(CCC)cn(CC)c2c(=O)[nH]1 [SK-3530 hemitartrate salt]
